Data from ChEMBL document CHEMBL1147034, “Synthesis and evaluation of 2',4',6'-trihydroxychalcones as a new class of tyrosinase inhibitors” (Bioorg Med Chem, 2007).

target: T1, Tyrosinase (Agaricus bisporus, UniProt O42713)
T1 sequence (O42713 whole entry): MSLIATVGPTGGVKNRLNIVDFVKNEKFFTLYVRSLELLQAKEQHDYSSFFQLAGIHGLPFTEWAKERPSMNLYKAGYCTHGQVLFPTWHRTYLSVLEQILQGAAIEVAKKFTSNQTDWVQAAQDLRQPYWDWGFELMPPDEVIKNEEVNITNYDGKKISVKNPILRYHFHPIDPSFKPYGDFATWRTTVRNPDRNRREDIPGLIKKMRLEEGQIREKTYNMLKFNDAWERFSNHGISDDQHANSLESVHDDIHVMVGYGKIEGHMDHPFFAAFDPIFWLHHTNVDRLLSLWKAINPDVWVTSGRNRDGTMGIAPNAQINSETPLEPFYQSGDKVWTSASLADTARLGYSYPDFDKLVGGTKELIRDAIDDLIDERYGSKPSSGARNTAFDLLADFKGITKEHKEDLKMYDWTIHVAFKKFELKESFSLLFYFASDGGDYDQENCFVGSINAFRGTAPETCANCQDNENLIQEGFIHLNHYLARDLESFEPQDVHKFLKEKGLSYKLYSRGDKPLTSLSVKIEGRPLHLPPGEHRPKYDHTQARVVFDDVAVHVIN

| IC50 | Ki | Structure (SMILES) |
| --- | --- | --- |
| 193 µM |  | O=C(/C=C/c1cccc(O)c1O)c1c(O)cc(O)cc1O |
| 5 µM |  | O=C(/C=C/c1ccc(O)cc1O)c1ccc(O)cc1O |
| 200 µM |  | O=C(/C=C/c1cc(O)c(O)c(O)c1)c1c(O)cc(O)cc1O |
| 1 µM | 3.1 µM | O=C(/C=C/c1ccc(O)cc1O)c1c(O)cc(O)cc1O |
| 150 µM |  | COc1ccc(/C=C/C(=O)c2c(O)cc(O)cc2O)cc1OC |
| 3.1 µM |  | COc1cc(O)cc(O)c1C(=O)/C=C/c1ccc(O)cc1O |

target: T2, Tyrosinase (Agaricus bisporus) (UniProt O42713); test: Inhibition of mushroom tyrosinase at 400 uM
T2 sequence (whole entry): T1 sequence (O42713 whole entry)

| inhibition | Structure (SMILES) |
| --- | --- |
| < 20% | O=C(/C=C/c1ccc(O)c(O)c1)c1c(O)cc(O)cc1O |
| < 20% | O=C(/C=C/c1ccccc1)c1ccc(O)cc1O |
| < 20% | COc1cc(O)c(C(=O)/C=C/c2cccc(O)c2O)c(OC)c1 |

More lines, now with the values behind:

| Structure (SMILES) | inhibition |
| --- | --- |
| COc1cc(O)c(C(=O)/C=C/c2ccc(O)c(O)c2)c(OC)c1 | < 20% |
| COc1cc(O)c(C(=O)/C=C/c2cc(O)c(O)c(O)c2)c(OC)c1 | < 20% |
| O=C(/C=C/c1ccc(O)cc1O)c1c(O)cc(O)cc1O | 72% |
| O=C(/C=C/c1ccccc1)c1c(O)cccc1O | < 20% |
| O=C(/C=C/c1ccc(O)c(O)c1)c1ccc(O)c(O)c1 | < 20% |
| O=C(/C=C/c1ccc(O)c(O)c1)c1ccccc1O | < 20% |
